# Tested on: normal dogs
# Assay: Oral administration of hBNP-021 versus native hBNP in normal dogs (randomized crossover)
# Conditions: dog, oral 350 ug/kg
# Experimental: Immediately prior to oral dosing, the powder (either hBNP or hBNP conjugate) was dissolved in a buffered formulation to a concentration of 1.25 mg/mL.
# MAP and blood samplings were repeated at 10, 30, 60, 120, 180, and 240 minutes after oral administration. Blood samples were collected in pre-chilled EDTA tubes and immediately placed on ice and centrifuged at −4° C. Plasma was stored at −80° C. until analysis. After extraction, plasma cANP, cBNP, hBNP and cGMP were assessed by radioimmunoassay as previously described (Saito, Y. et al. 1989; Kambayashi, Y. et al, 1990).
# Results are expressed as mean ±SEM. Data were assessed by 1-way ANOVA for comparisons within groups followed by post hoc Dunnett's test. Two-way ANOVA was used for comparisons between groups, followed by Bonferroni posttest. Student's paired t test was performed for single comparisons between groups (Graph-Pad Prism software 4.0). Statistical significance was accepted at a value of P<0.05.
smiles,measurement,value
"CC[C@H](C)[C@@H]1NC(=O)[C@H](CCCNC(=N)N)NC(=O)[C@H](CC(=O)O)NC(=O)[C@H](CCSC)NC(=O)[C@H](CCCCN)NC(=O)[C@H](CCCNC(=N)N)NC(=O)CNC(=O)[C@H](Cc2ccccc2)NC(=O)[C@@H](NC(=O)CNC(=O)[C@H](CO)NC(=O)CNC(=O)[C@H](CCC(N)=O)NC(=O)[C@@H](NC(=O)[C@H](CCSC)NC(=O)[C@H](CCCCN)NC(=O)[C@@H]2CCCN2C(=O)[C@@H](N)CO)C(C)C)CSSC[C@@H](C(=O)N[C@@H](CCCCN)C(=O)N[C@H](C(=O)N[C@@H](CC(C)C)C(=O)N[C@@H](CCCN=C(N)N)C(=O)N[C@@H](CCCN=C(N)N)C(=O)N[C@@H](Cc2cnc[nH]2)C(=O)O)C(C)C)NC(=O)CNC(=O)[C@H](CC(C)C)NC(=O)CNC(=O)[C@H](CO)NC(=O)[C@H](CO)NC(=O)[C@H](CO)NC(=O)[C@H](CO)NC1=O [Native hBNP, reference compound]",plasma hBNP after oral administration,detected in lower levels
